According to a melting point compilation (Tetko et al.; mined from patent text by program, amines drawn as free bases though some values may be those of a salt):

With `CN1C(=O)CN=C(c2ccccc2F)c2cc(NC(=O)NCCCO)ccc21` the melting point was 118 to 119 °C.
Work on `CC(=O)Nc1nc2c(s1)CCN(Cc1ccccc1)CC2` yielded a melting point of 129 to 130 °C.
`O=C1NC(=O)C(Cc2ccc(NC(=O)c3cc(=O)c4cc(Br)ccc4o3)cc2)S1` (stereo unspecified) showed a melting point of 281 to 285 °C.
Compound `N#Cc1nc(Cl)c(-c2cccc(Cl)c2)nc1C#N` has a melting point of 87 to 88 °C.
For `O=C(Nc1ccc(-n2nc(C(F)(F)F)cc2C(F)(F)F)cc1)N1CCOCC1`, the melting point was 185 to 186 °C.
In the case of `NCCCC(=O)NCCS(=O)(=O)O`, the melting point was 247 °C.
In the case of `O=S1(=O)N=C(c2ccccc2)c2ccccc21`, the melting point was 118 °C.
Compound `COC(=O)c1cc(CO)ccc1S(=O)(=O)NC(=O)Nc1nc(OC)cc(OC)n1` has a melting point of 182 to 185 °C.
Compound `CN1C(=O)[C@H](NC(=O)/C=C/c2ccccc2Br)N=C(c2ccccc2)c2ccccc21` has a melting point of 113 to 116 °C.
With `N#Cc1nn(-c2c(Cl)cc(C(F)(F)F)cc2Cl)c(N2CCCC2)c1S(=O)(=O)C(F)(F)F` the melting point was 187 to 189 °C.
Compound `CC(=O)OC/C(=C(\C(=O)N(C)CC(C)(C)SN=O)c1ccc(F)cc1)c1ccc(S(C)(=O)=O)cc1` has a melting point of 37 to 38 °C.
With `O=C(NCc1nc(O)cc(O)n1)c1cccs1` the melting point was 270 to 275 °C.
For `Cc1c(C(=O)Nc2ccc(N3CCN(C4CCOCC4)CC3)c(C#N)c2)cnn1-c1ccc(F)cc1`, the melting point was 240 °C.
For `NS(=O)(=O)OCCOc1ccccc1`, the melting point was 89 to 91 °C.
In the case of `CCOC(=O)c1ccc(-c2nc(COc3ccc(COc4nn(-c5ccccc5)cc4C=O)cc3OC)c(C)o2)s1`, the melting point was 156 to 157 °C.
`CC1=C(CC(=O)O)CN(C)N1` gave a melting point of 191 to 192 °C.
Work on `COc1ccc(C2=C(c3c4n(c5ccccc35)CCC(CN)C4)C(=O)NC2=O)cc1` (stereo unspecified) yielded a melting point of 195 to 196 °C.
In the case of `N#CCCCC#Cc1cc(F)c2ncc(C(=O)NCc3ccc(Cl)cc3)c(O)c2c1`, the melting point was 208 to 210 °C.
`CS(=O)(=O)Nc1c(C(=O)c2cccc(Br)c2)[nH]c2cc(Cl)ccc12` showed a melting point of 184 to 185 °C.
`CS(=O)(=O)c1ccc(-n2nc(C(F)(F)F)cc2-c2ccc(-c3ccco3)cc2)cc1F` showed a melting point of 129 to 130 °C.
Work on `O=C1C2C3C=CC(C3)C2C(=O)N1OS(=O)(=O)C(F)(F)F` (stereo unspecified) yielded a melting point of 89 to 90 °C.
With `O=C1NC(=O)C(=Cc2ccc3c(c2)CCC(Cc2ccccc2)O3)S1` (single isomer, unassigned; (-)) the melting point was 255 °C.
In the case of `Nc1nc(=O)c2ccccc2n1Cc1ccc(F)cc1`, the melting point was 170 °C.
`COc1c(C(=O)O)n(C)c(=O)c2ccc(Cl)cc12` gave a melting point of 216 to 217 °C.
`O=C(Nc1cc(=O)n(-c2c(Cl)cc(C(F)(F)F)cc2Cl)[nH]1)c1ccccc1` showed a melting point of 288 °C.
`Cc1cc(C(=NO)c2cccs2)cc(C)c1OCC(=O)O` gave a melting point of 152 °C.
With `COC(=O)c1cccc(-c2cc(CCNC(=O)C3CCC3)c3cc(OC)ccc3c2)c1` the melting point was 128 to 130 °C.
With `Oc1cccc(Oc2nnc(Cc3ccncc3)c3ccccc23)c1` the melting point was 206 to 207 °C.
Compound `COc1ccc(Br)c2c1C1C(=O)NC(=O)C1CC2` (stereo unspecified) has a melting point of 191 to 193 °C.
With `CN(c1ccccc1)c1ccc(-c2nc(C#N)c(C#N)nc2C#N)cc1` the melting point was 187 °C.
In the case of `COc1ccc(Nc2cc(-c3ccccc3)nc(Nc3ccc(OC)c(Cl)c3)n2)cc1Cl`, the melting point was 250 to 254 °C.
In the case of `CCOCn1c(C(F)(F)F)cc(C#N)c1-c1ccc(Cl)cc1`, the melting point was 83 to 84.5 °C.
`CCNc1nc2ccc(CCc3nc4cc(C)ccn4c3Br)cc2o1` gave a melting point of 149 to 153 °C.
In the case of `CCOC(=O)c1c[nH]c2c(O)c(OC)ccc2c1=O`, the melting point was 233 to 236 °C.
For `CCc1cc(C(=O)c2ccccc2Cl)c(-n2cnnc2CNC(=O)c2ccccc2)s1`, the melting point was 140 to 142 °C.
Work on `O=C(O)Cc1ccc(N2Cc3ccccc3C2=O)cc1` yielded a melting point of 210 to 211 °C.
Work on `Cc1c(SCCCSc2ccncc2)ccnc1CSc1ccncc1` yielded a melting point of 116 to 118 °C.
In the case of `CNC(=S)N1CC(c2ccccc2)C(c2ccc(Cl)cc2)=N1` (stereo unspecified), the melting point was 181 to 183 °C.
`COC(=O)c1nc(N2CCCC2)ccc1O` showed a melting point of 82.5 to 84 °C.
For `COc1cc(OC)c(C2=NC(NC(=O)Nc3cccc(C)c3)C(=O)N(C)c3ccccc32)c(OC)c1` (stereo unspecified), the melting point was 240 °C.
For `CN=C(Nc1cc(Cl)cc(Cl)c1)N1CCN(c2ccc(OC(C)=O)cc2OC)CC1`, the melting point was 144 °C.
Work on `CC1(C)Oc2ccc(C#N)cc2C(Nn2ccccc2=O)C1(C)O` (stereo unspecified) yielded a melting point of 184 to 187 °C.
Work on `CCc1nc(NC)sc1-c1ccncc1` yielded a melting point of 146 to 149 °C.
In the case of `Cc1ccc(N)c2c1CCC2=NNC(=N)N`, the melting point was > 250 °C.
In the case of `CCCCCCCCCCCCCCCCC[C@@H](O)CC(=O)OC`, the melting point was 64 to 64.5 °C.
`CCOc1cccc(-c2c(C)c(=O)cc(-c3ccccc3)n2-c2ccccc2)c1` gave a melting point of 146 to 149 °C.
With `CN1Cc2ccc3c(c2C1)NC(=O)C3=NO` the melting point was 242 to 244 °C.
`COc1ccc(CCN(C)C(=O)COc2ccc([N+](=O)[O-])cc2)cc1OC` gave a melting point of 121 °C.
With `C=CCc1cc2c(c(CC=C)c1O)CCC(=O)N2CCCn1cnnc1` the melting point was 129 to 132 °C.
`COC1(C)CC(C)(C)c2ccc(Oc3ccc([N+](=O)[O-])cc3)cc2O1` (stereo unspecified) showed a melting point of 125 °C.
Work on `CC(C)(C)C(NC(=O)Cc1ccc(Cl)cc1)NC(=NC#N)c1cccc2ncccc12` (stereo unspecified) yielded a melting point of 218 to 220 °C.
